Measured values: the NIST ThermoML archive (doi:10.1016/j.jct.2018.12.016)
Numbers after ± are expanded uncertainties.

Settings: 298.15 K, Liquid; for mass density: 101.33 kPa, Pycnometric method; for vapor or sublimation pressure: Manometric method

| mass density [kg/m3] | vapor or sublimation pressure [kPa] | Structure (SMILES) |
| --- | --- | --- |
| 776 ± 2 | 11.81 ± 0.16 | CC#N [acetonitrile] |
| 1063 ± 2 | 7.256 ± 0.12 | COC(=O)OC [dimethyl carbonate] |
| 1096 ± 3 | 0.08 ± 0.078 | C[S+](C)[O-] [dimethyl sulfoxide] |

| Structure (SMILES) | mass density [kg/m3] | vapor or sublimation pressure [kPa] |
| --- | --- | --- |
| CCCCOC(=O)c1ccccc1C(=O)OCCCC [dibutyl phthalate] | 1042 ± 2 |  |
| [Hg] [mercury] | 13530 ± 30 |  |
